Experimental data from patent publication US9365574B2, “Soluble guanylate cyclase activators” (Merck Sharp & Dohme Corp., priority 2010, dated 2016).

The compounds below were run on Spontaneously hypertensive rats (SHR) (assay: Acute Efficacy in Spontaneously Hypertensive Rats (SHR), telemetry blood pressure). Conditions: dose 0.3 mpk.
Assay type: in vivo, rat
From the text: Acute Efficacy in Spontaneously Hypertensive Rats (SHR)
Spontaneously hypertensive rats (SHR, male, Charles River) were implanted with DSI TA11PA-C40 telemetry device (Data Sciences, Inc., St. Paul, Minn.) under isoflurane or ketamine/metomidine anesthesia. The telemetry unit catheter was inserted into the descending aorta via the femoral artery and the telemetry device was implanted subcutaneously in the left flank area. Animals were allowed to recover from surgery for 14 days before the start of any studies. Blood pressure, heart rate, and activity signals from conscious, freely moving rats were recorded continuously for 30 seconds every 10 minutes. On the day prior to administration of compound, a single oral dose of vehicle (10% transcutol/20% Cremophor/70% water) was administered to all animals to establish baseline control data. The blood pressure lowering efficacy of compound (PO) or vehicle was evaluated following a single oral gavage. Data were collected as hourly averages, and changes in blood pressure were calculated by subtracting control baseline data on an hourly basis. Animals were maintained on normal diet with a 12 hour light-dark cycle.
Maximum peak decreases of systolic blood pressure (SBP) in SHR at a particular P.O. dose (mpk milligrams per kilogram) for the following representative compounds are provided.
For `CC1(c2nncs2)C(=O)Nc2nc(-c3nn(CCC(F)(F)C(F)(F)F)c4ncccc34)nc(N)c21` (centres unmarked) [Example 168, 4-Amino-5-Methyl-2-[1-(3,3,4,4,4-Pentafluorobutyl)-1H-Pyrazolo[3,4-B]Pyridin-3-yl]-5-(1,3,4-Thiadiazol-2-yl)-5,7-Dihydro-6H-Pyrrolo[2,3-D]Pyrimidin-6-One], the “Maximum SBP reduction” value was 19 ± 9 mmHg.
With `NC(=O)C1(C2CC2)C(=O)Nc2nc(-c3nn(CCC(F)(F)C(F)(F)F)c4ncccc34)nc(N)c21` (centres unmarked) [Example 162, 4-Amino-5-Cyclopropyl-6-Oxo-2-[1-(3,3,4,4,4-Pentafluorobutyl)-1H-Pyrazolo[3,4-B]Pyridin-3-yl]-6,7-Dihydro-5H-Pyrrolo[2,3-D]Pyrimidine-5-Carboxamide] the “Maximum SBP reduction” value was 26 ± 7 mmHg.

Same assay, conditions: single oral dose 0.1 mpk P.O.
With `CC1(C(=O)NC2COC2)C(=O)Nc2nc(-c3nn(CCC(F)(F)C(F)(F)F)c4nc(Cl)ccc34)nc(N)c21` (centres unmarked) [Example 230, 4-amino-2-[6-chloro-1-(3,3,4,4,4-pentafluorobutyl)-1H-pyrazolo[3,4-b]pyridin-3-yl]-5-methyl-N-oxetan-3-yl-6-oxo-6,7-dihydro-5H-pyrrolo[2,3-d]pyrimidine-5-carboxamide] the “Maximum peak decrease of systolic blood pressure (SBP) in SHR, Category” value (“Maximum peak decrease” for short) was “A (Category A=SBP in SHRs<25 mmHg)”.

Same assay, conditions: single oral dose 0.3 mpk P.O.
In the case of `CC1(c2nncs2)C(=O)Nc2nc(-c3nn(CCC(F)(F)C(F)(F)F)c4ncccc34)nc(N)c21` (centres unmarked) [Example 168, 4-Amino-5-Methyl-2-[1-(3,3,4,4,4-Pentafluorobutyl)-1H-Pyrazolo[3,4-B]Pyridin-3-yl]-5-(1,3,4-Thiadiazol-2-yl)-5,7-Dihydro-6H-Pyrrolo[2,3-D]Pyrimidin-6-One], the “Maximum peak decrease” value is reported as “A (Category A=SBP in SHRs<25 mmHg)”.
In the case of `CC1(NCC2CC2)C(=O)Nc2nc(-c3nn(CCC(F)(F)C(F)(F)F)c4cc(Cl)ccc34)nc(N)c21` (centres unmarked) [Example 202, 4-amino-2-[6-chloro-1-(3,3,4,4,4-pentafluorobutyl)-1H-indazol-3-yl)-5-[(cyclopropylmethyl)amino]-5-methyl-5,7-dihydro-6H-pyrrolo[2,3-d]pyrimidin-6-one], the “Maximum peak decrease” value is reported as “C (Category C=SBP in SHRs>40 mmHg)”.
`Cc1ccc2c(-c3nc(N)c4c(n3)NC(=O)C4(C)C(=O)NC3CCOCC3)nn(CCC(F)(F)C(F)(F)F)c2n1` (centres unmarked) [Example 239, 4-amino-5-methyl-2-[6-methyl-1-(3,3,4,4,4-pentafluorobutyl)-1H-pyrazolo[3,4-b]pyridin-3-yl]-6-oxo-N-(tetrahydro-2H-pyran-4-yl)-6,7-dihydro-5H-pyrrolo[2,3-d]pyrimidine-5-carboxamide] was tested, and the “Maximum peak decrease” value was “A (Category A=SBP in SHRs<25 mmHg)”.
For `CC1(C(=O)NC2CCOC2)C(=O)Nc2nc(-c3nn(CCC(F)(F)C(F)(F)F)c4ncccc34)nc(N)c21` (centres unmarked) [Example 235, 4-amino-5-methyl-6-oxo-2-[1-(3,3,4,4,4-pentafluorobutyl)-1H-pyrazolo[3,4-b]pyridin-3-yl]-N-(tetrahydrofuran-3-yl)-6,7-dihydro-5H-pyrrolo[2,3-d]pyrimidine-5-carboxamide], the “Maximum peak decrease” value was “B (Category B=SBP in SHRs 25-40 mmHg)”.
`CC1(N)C(=O)Nc2nc(-c3nn(CCC(F)(F)C(F)(F)F)c4cc(Cl)ccc34)nc(N)c21` (centres unmarked) [Example 201, 4,5-diamino-2-[6-chloro-1-(3,3,4,4,4-pentafluorobutyl)-1H-indazol-3-yl]-5-methyl-5,7-dihydro-6H-pyrrolo[2,3-d]pyrimidin-6-one] was tested, and the “Maximum peak decrease” value was “A (Category A=SBP in SHRs<25 mmHg)”.
In the case of `CC1(C(=O)NC2CCC2)C(=O)Nc2nc(-c3nn(CCC(F)(F)C(F)(F)F)c4cc(Cl)ccc34)nc(N)c21` (centres unmarked) [Example 196, 4-amino-2-[6-chloro-1-(3,3,4,4,4-pentafluorobutyl)-1H-indazol-3-yl]-N-cyclobutyl-5-methyl-6-oxo-6,7-difluoro-5H-pyrrolo[2,3-d]pyrimidine-5-carboxamide], the “Maximum peak decrease” value is reported as “B (Category B=SBP in SHRs 25-40 mmHg)”.
With `Cn1cc(NC(=O)C2(C)C(=O)Nc3nc(-c4nn(CCOC(F)(F)F)c5ncccc45)nc(N)c32)cn1` (centres unmarked) [Example 215, 4-amino-5-methyl-N-(1-methyl-1H-pyrazol-4-yl)-6-oxo-2-{1-[2-(trifluoromethoxy)ethyl]-1H-pyrazolo[3,4-b]pyridin-3-yl}-6,7-dihydro-5H-pyrrolo[2,3-d]pyrimidine-5-carboxamide] the “Maximum peak decrease” value was “B (Category B=SBP in SHRs 25-40 mmHg)”.
With `CC1(C(N)=O)C(=O)Nc2nc(-c3nn(CCC(F)(F)C(F)(F)F)c4ccccc34)nc(N)c21` (centres unmarked) [Example 193, 4-amino-5-methyl-6-oxo-2-[1-(3,3,4,4,4-pentafluorobutyl)-1H-indazol-3-yl]-6,7-dihydro-5H-pyrrolo[2,3-d]pyrimidine-5-carboxamide] the “Maximum peak decrease” value was “C (Category C=SBP in SHRs>40 mmHg)”.
With `NC(=O)C1(C2CC2)C(=O)Nc2nc(-c3nn(CCC(F)(F)C(F)(F)F)c4ncccc34)nc(N)c21` (centres unmarked) [Example 162, 4-Amino-5-Cyclopropyl-6-Oxo-2-[1-(3,3,4,4,4-Pentafluorobutyl)-1H-Pyrazolo[3,4-B]Pyridin-3-yl]-6,7-Dihydro-5H-Pyrrolo[2,3-D]Pyrimidine-5-Carboxamide] the “Maximum peak decrease” value was “B (Category B=SBP in SHRs 25-40 mmHg)”.
In the case of `C#CC1(C)C(=O)Nc2nc(-c3nn(CCC(F)(F)C(F)(F)F)c4ncccc34)nc(N)c21` (centres unmarked) [Example 219, 4-amino-5-ethynyl-5-methyl-2-[1-(3,3,4,4,4-pentafluorobutyl)-1H-pyrazolo[3,4-b]pyridin-3-yl]-5,7-dihydro-6H-pyrrolo[2,3-d]pyrimidin-6-one], the “Maximum peak decrease” value is reported as “C (Category C=SBP in SHRs>40 mmHg)”.
For `Cn1ccc(NC(=O)C2(C)C(=O)Nc3nc(-c4nn(CCOC(F)(F)F)c5ncccc45)nc(N)c32)n1` (centres unmarked) [Example 210, 4-amino-5-methyl-N-(1-methyl-1H-pyrazol-3-yl)-6-oxo-2-{1-[2-(trifluoromethoxy)ethyl]-1H-pyrazolo[3,4-b]pyridin-3-yl}-6,7-dihydro-5H-pyrrolo[2,3-d]pyrimidine-5-carboxamide], the “Maximum peak decrease” value was “B (Category B=SBP in SHRs 25-40 mmHg)”.
With `CC1(c2nc(C(F)(F)F)no2)C(=O)Nc2nc(-c3nn(CCC(F)(F)C(F)(F)F)c4ncccc34)nc(N)c21` (centres unmarked) [Example 207, 4-amino-5-methyl-2-[1-(3,3,4,4,4-pentafluorobutyl)-1H-pyrazolo[3,4-b]pyridin-3-yl]-5-[3-(trifluoromethyl)-1,2,4-oxadiazol-5-yl]-5,7-dihydro-6H-pyrrolo[2,3-d]pyrimidin-6-one] the “Maximum peak decrease” value was “C (Category C=SBP in SHRs>40 mmHg)”.
In the case of `CC1(C(=O)Nc2ccccc2)C(=O)Nc2nc(-c3nn(CCC(F)(F)C(F)(F)F)c4cc(Cl)ccc34)nc(N)c21` (centres unmarked) [Example 165, 4-Amino-2-[6-Chloro-1-(3,3,4,4,4-Pentafluorobutyl)-1H-Indazol-3-yl]-5-Methyl-6-Oxo-N-Phenyl-6,7-Dihydro-5H-Pyrrolo[2,3-D]Pyrimidine-5-Carboxamide], the “Maximum peak decrease” value is reported as “B (Category B=SBP in SHRs 25-40 mmHg)”.
With `CC(C)n1nc(C2(C)C(=O)Nc3nc(-c4nn(CCC(F)(F)C(F)(F)F)c5ccncc45)nc(N)c32)oc1=O` (centres unmarked) [Example 199, 4-amino-5-methyl-5-[4-(1-methylethyl)-5-oxo-4,5-dihydro-1,3,4-oxadiazol-2-yl]-2-[1-(3,3,4,4,4-pentafluorobutyl)-1H-pyrazolo[3,4-d]pyridin-3-yl]-5,7-dihydro-6H-pyrrolo[2,3-d]pyrimidin-6-one] the “Maximum peak decrease” value was “B (Category B=SBP in SHRs 25-40 mmHg)”.
With `Nc1nc(-c2nn(CCC(F)(F)F)c3ncccc23)nc2c1C(C(=O)NC1CC1)(C1CC1)C(=O)N2` (centres unmarked) [Example 245, 4-amino-N,5-dicyclopropyl-6-oxo-2-[1-(3,3,3-trifluoropropyl)-1H-pyrazolo[3,4-b]pyridin-3-yl]-6,7-dihydro-5H-pyrrolo[2,3-d]pyrimidine-5-carboxamide] the “Maximum peak decrease” value was “C (Category C=SBP in SHRs>40 mmHg)”.
In the case of `CC1(C(N)=O)C(=O)Nc2nc(-c3nn(CCCC(F)(F)F)c4ncccc34)nc(N)c21` (centres unmarked) [Example 228, 4-amino-5-methyl-6-oxo-2-[1-(4,4,4-trifluorobutyl)-1H-pyrazolo[3,4-b]pyridin-3-yl]-6,7-dihydro-5H-pyrrolo[2,3-d]pyrimidine-5-carboxamide], the “Maximum peak decrease” value is reported as “A (Category A=SBP in SHRs<25 mmHg)”.
For `CNc1nc(-c2nn(CCC(F)(F)C(F)(F)F)c3cc(Cl)ccc23)nc2c1C(C)(C(=O)NC1CC1)C(=O)N2` (centres unmarked) [Example 257, 2-[6-chloro-1-(3,3,4,4,4-pentafluorobutyl)-1H-indazol-3-yl)-N-cyclopropyl-5-methyl-4-(methylamino)-6-oxo-6,7-dihydro-5H-pyrrolo[2,3-d]pyrimidine-5-carboxamide], the “Maximum peak decrease” value was “A (Category A=SBP in SHRs<25 mmHg)”.
In the case of `CC1(C(N)=O)C(=O)Nc2nc(-c3nc(CCC(F)(F)C(F)(F)F)c4ccccn34)nc(N)c21` (centres unmarked) [Example 270, 4-amino-5-methyl-6-oxo-2-[1-(3,3,4,4,4-pentafluorobutyl)imidazo[1,5-a]pyridin-3-yl]-6,7-dihydro-5H-pyrrolo[2,3-d]pyrimidine-5-carboxamide], the “Maximum peak decrease” value is reported as “A (Category A=SBP in SHRs<25 mmHg)”.

Same assay, conditions: single oral dose 1 mpk P.O.
`CCC1(C(N)=O)C(=O)Nc2nc(-c3nn(CCC(F)(F)C(F)(F)F)c4ncccc34)nc(N)c21` (centres unmarked) [Example 241, 4-amino-5-ethyl-6-oxo-2-[1-(3,3,4,4,4-pentafluorobutyl)-1H-pyrazolo[3,4-b]pyridin-3-yl]-6,7-dihydro-5H-pyrrolo[2,3-d]pyrimidine-5-carboxamide] was tested, and the “Maximum peak decrease” value was “B (Category B=SBP in SHRs 25-40 mmHg)”.
With `CC1(CC(=O)NC2CC2)C(=O)Nc2nc(-c3nn(CCC(F)(F)C(F)(F)F)c4cc(Cl)ccc34)nc(N)c21` (centres unmarked) [Example 208, 2-{4-amino-2-[6-chloro-1-(3,3,4,4,4-pentafluorobutyl)-1H-indazol-3-yl]-5-methyl-6-oxo-6,7-dihydro-5H-pyrrolo[2,3-d]pyrimidin-5-yl}-N-cyclopropylacetamide] the “Maximum peak decrease” value was “A (Category A=SBP in SHRs<25 mmHg)”.
